The text below walks through data of paper PMC5569483, “Screening and evolution of a novel protist xylose isomerase from the termite Reticulitermes speratus for efficient xylose fermentation in Saccharomyces cerevisiae” (Biotechnology for Biofuels, 2017).

The test system of this test is T1, RsXI-C1.
T1 construct: full-length ORF, codon-optimized gene, expressed in S. cerevisiae W600W (strain WR311), crude cell extract
The test is described as follows: coupled sorbitol dehydrogenase assay, NADH oxidation at […] nm, Lineweaver-Burk. The note with it: crude cell extract; 100 mM Tris-HCl pH 7.5, 10 mM MgSO4, 0.15 mM NADH, 30 °C, 5–250 mM D-xylose. Format: biochemical, uncultured symbiotic protist of Reticulitermes speratus.

For `OC1OC[C@@H](O)[C@H](O)[C@H]1O` (stereo partly shown) [xylose], the Michaelis constant (Km) turned out to be 10.5 ± 1.1 mM.
